# Measurements published in patent US9822382B2, “Process for making ethanol by fermentation” (Evonik Degussa GmbH, priority 2014, dated 2017).
# Key:
# Rod bacteria [1] = experiment: Rod bacteria cell count and infection rate, laboratory treatment of yeast cream and fermentation; format: cell-based
# Protocol: (§1) Bacterial and yeast cell counts, yeast cell viability and yeast flocculation were determined as described in A. J. Oliveira et al., Curso de treinamento em microbiologia, Piracicaba: FERMENTEC and ESALQ, 1996 and in A. J. Oliveira et al., Métodos para o controle microbiológico na produção de açúcar e álcool, Piracicaba: FERMENTEC, FEALQ and ESALQ, 1996. Bacterial infection rates were calculated as the ratio of the rod bacteria cell count and the yeast cell count.
# (§2) The examples were carried out with a yeast cream obtained by separating yeast from a fermented sugar cane mush from a sugar cane ethanol production mill operating with batch fermentation and yeast recycle. The yeast cream was diluted with water to a yeast cell content of about 24% by weight and the pH of the diluted yeast cream was adjusted to a value of 1.8 by adding sulfuric acid.
# Then 322 ml of acidified diluted yeast cream were placed in a vessel and 678 ml of cane must having a pH of 6.2 were added with mixing in 5 portions with 1 h intervals between additions. Fermentation of the cane must with the acidified diluted yeast cream was carried out at 33° C. for 21 h. The final pH of the fermented mash was 4.8.
# In example 2, equilibrium peroxyacetic acid PERACLEAN® 15 of Evonik was added to the acidified diluted yeast cream in an amount of 50 mg/l and the resulting treated yeast concentrate was kept at 30° C. for 1.7 hours before it was analyzed microbiologically. Thereafter, fermentation was carried out as in example 1.
# Examples 1 and 2 were repeated without adding peroxyacetic acid in example 3 and with addition of equilibrium peroxyacetic acid PERACLEAN® 15 in an amount of 60 mg/l peroxyacetic acid in example 4. The treated yeast cream was kept at 30° C. for 2 hours before it was analyzed microbiologically and fermentation was started.
# as §2, with “that operates” for “operating”, “fed-batch” for “batch”, “27%” for “24%”, “weight. The” for “weight and the”, “4.0.” for “adjusted to a value of 1.8 by adding sulfuric acid.”
# In example 6, equilibrium peroxyacetic acid PERACLEAN® 15 of Evonik was added to the diluted yeast cream in an amount of 50 mg/l and the resulting treated yeast concentrate was kept at 30° C. for 2.3 hours before it was analyzed microbiologically.
# In example 8, the pH of the diluted yeast cream was adjusted as in example 7, equilibrium peroxyacetic acid PERACLEAN® 15 of Evonik was added to the acidified diluted yeast cream in an amount of 50 mg/l and the resulting treated yeast concentrate was kept at 30° C. for 2.0 hours before it was analyzed microbiologically.
# Rod bacteria [2] = experiment: Rod bacteria cell count and infection rate in fermented mash, sugar cane ethanol production mill trial; format: cell-based
# Protocol: as §1
# Examples 9 to 11 were carried out in a sugar cane ethanol production mill operating 6 fermenters in fed-batch. The fermented mash is sent to a centrifuge which separates yeast cream with an average yeast content of 63% by weight. The yeast cream is diluted with water to an average yeast content of 27% by weight and transferred to a stirred yeast cream recovery tank. Diluted yeast cream is passed continuously from this tank to a stirred yeast treatment tank at a rate of from 42 to 127 m^3/h. Sulfuric acid is added to the yeast treatment tank to maintain a pH in the range from 1.8 to 2.8. The average residence time in both the yeast cream recovery tank and the yeast treatment tank is in the range of from 1.3 to 4.0 h. Fermentation is carried out by charging the acidified yeast concentrate to a fermenter over a 1 to 2 h period, followed by feeding sugar cane mash with a sugar content of 22° Brix and a pH of 5.8 to the fermenter over a 6 h period. Fermentation is continued for a further 2 h without feed and the fermented mash is sent to a centrifuge. Bacterial contamination was monitored by microbiological analysis of samples of fermented mash taken before feeding the mash to a centrifuge. Samples were analyzed for bacterial and yeast cell counts and for yeast cell viability and yeast flocculation.
# In example 9, equilibrium peroxyacetic acid PERACLEAN® 15 of Evonik was dosed to the yeast treatment tank for 28 h in an amount of 60 ppm during days 3 and 4 of the experiment. pH in the yeast treatment tank was maintained in the range of from 1.84 to 2.02.
# In example 10, equilibrium peroxyacetic acid PERACLEAN® 15 of Evonik was dosed to the yeast treatment tank for 43 h during days 6 and 7 of the experiment in an amount that was lowered stepwise from 49 ppm to 20 ppm. pH in the yeast treatment tank was maintained in the range of from 1.97 to 2.60.
# In example 11, equilibrium peroxyacetic acid PERACLEAN® 15 of Evonik was dosed to the yeast cream recovery tank on days 2 and 3 of the experiment for 13 h in an amount of 50 ppm, followed by dosing for 28 h in an amount of 30 ppm. During this period the pH in the yeast cream recovery tank was in the range of from 3.0 to 3.3. Then dosing of peroxyacetic acid to the yeast cream recovery tank was stopped and peroxyacetic acid was dosed to the yeast treatment tank for 18 h in an amount of 30 ppm. During this period the pH in the yeast treatment tank was about 2.0.
# [3] = Example 2, 50 ppm, pH 1.8, fermented mash after 21 h
# [4] = Example 2, 50 ppm, pH 1.8, treated yeast concentrate, 30° C. 1.7 hours
# [5] = Example 4, 60 ppm, pH 1.8, fermented mash after 19 h
# [6] = Example 4, 60 ppm, pH 1.8, treated yeast concentrate, 30° C. 2 hours
# [7] = Example 6, 50 mg/l, no pH adjustment (pH 4.17), treated yeast concentrate, 30° C. 2.3 hours
# [8] = Example 8, 50 mg/l, pH adjusted to 2.0 with sulfuric acid (pH 2.40), treated yeast concentrate, 30° C. 2.0 hours
# [9] = Example 9, fermenter 2, day 3, 60 ppm to yeast treatment tank during days 3 and 4, pH 1.84 to 2.02
# [10] = Example 9, fermenter 2, day 4, 60 ppm to yeast treatment tank during days 3 and 4, pH 1.84 to 2.02
# [11] = Example 9, fermenter 2, day 5, after addition (60 ppm, days 3 and 4) was stopped
# [12] = Example 9, fermenter 4, day 3, 60 ppm to yeast treatment tank during days 3 and 4, pH 1.84 to 2.02
# [13] = Example 9, fermenter 4, day 4, 60 ppm to yeast treatment tank during days 3 and 4, pH 1.84 to 2.02
# [14] = Example 9, fermenter 4, day 6, after addition (60 ppm, days 3 and 4) was stopped
# [15] = Example 10, fermenter 2, day 6, 49 ppm lowered stepwise to 20 ppm to yeast treatment tank during days 6 and 7, pH 1.97 to 2.60
# [16] = Example 10, fermenter 2, day 7, 49 ppm lowered stepwise to 20 ppm to yeast treatment tank during days 6 and 7, pH 1.97 to 2.60
# [17] = Example 10, fermenter 2, day 8, after dosing during days 6 and 7
# [18] = Example 10, fermenter 2, day 9, after dosing during days 6 and 7
# [19] = Example 10, fermenter 3, day 6, 49 ppm lowered stepwise to 20 ppm to yeast treatment tank during days 6 and 7, pH 1.97 to 2.60
# [20] = Example 10, fermenter 3, day 7, 49 ppm lowered stepwise to 20 ppm to yeast treatment tank during days 6 and 7, pH 1.97 to 2.60
# [21] = Example 10, fermenter 3, day 8, after dosing during days 6 and 7
# [22] = Example 10, fermenter 3, day 9, after dosing during days 6 and 7
# [23] = Example 11, fermenter 3, day 2, 50 ppm then 30 ppm to yeast cream recovery tank on days 2 and 3, pH 3.0 to 3.3
# [24] = Example 11, fermenter 3, day 4, after recovery tank dosing, 30 ppm to yeast treatment tank for 18 h, pH about 2.0
smiles,measurement,setting,value
CC(=O)OO [peroxyacetic acid],Infection rate in %,Rod bacteria [1]; [3],2.6%
same,Rod bacteria cells/ml,Rod bacteria [1]; [3],6.1*10^6 cells/ml
same,Infection rate in %,Rod bacteria [1]; [4],0.5%
same,Rod bacteria cells/ml,Rod bacteria [1]; [4],2.9*10^6 cells/ml
same,Infection rate in %,Rod bacteria [1]; [5],0.1%
same,Rod bacteria cells/ml,Rod bacteria [1]; [5],0.22*10^6 cells/ml
same,Infection rate in %,Rod bacteria [1]; [6],0.3%
same,Rod bacteria cells/ml,Rod bacteria [1]; [6],1.8*10^6 cells/ml
same,Infection rate in %,Rod bacteria [1]; [7],8.3%
same,Rod bacteria cells/ml,Rod bacteria [1]; [7],68*10^6 cells/ml
same,Infection rate in %,Rod bacteria [1]; [8],1.7%
same,Rod bacteria cells/ml,Rod bacteria [1]; [8],14*10^6 cells/ml
same,effectiveness of treatment of the yeast concentrate against bacterial contamination,Rod bacteria [1]; pH not adjusted to the claimed range by addition of acid (table 5),ineffective
same,combined effect of pH adjustment with mineral acid and peroxyacetic acid addition,"Rod bacteria [1]; table 5, Examples 5 to 8",synergistic effect
same,bacterial contamination of the fermented mash,Rod bacteria [1]; treatment of the yeast concentrate at pH 1.8 before using it for the fermentation,effective in preventing bacterial contamination
same,Infection rate in %,Rod bacteria [2]; [9],11%
same,Rod bacteria cells/ml,Rod bacteria [2]; [9],28*10^6 cells/ml
same,Infection rate in %,Rod bacteria [2]; [10],10%
same,Rod bacteria cells/ml,Rod bacteria [2]; [10],39*10^6 cells/ml
same,Infection rate in %,Rod bacteria [2]; [11],18%
same,Rod bacteria cells/ml,Rod bacteria [2]; [11],51*10^6 cells/ml
same,Infection rate in %,Rod bacteria [2]; [12],11%
same,Rod bacteria cells/ml,Rod bacteria [2]; [12],53*10^6 cells/ml
same,Infection rate in %,Rod bacteria [2]; [13],3%
same,Rod bacteria cells/ml,Rod bacteria [2]; [13],20*10^6 cells/ml
same,Infection rate in %,Rod bacteria [2]; [14],22%
same,Rod bacteria cells/ml,Rod bacteria [2]; [14],57*10^6 cells/ml
same,bacterial contamination and yeast flocculation,"Rod bacteria [2]; Example 9, upon addition of 60 ppm to yeast treatment tank, return when addition is stopped",reduced
same,control of bacterial contamination and yeast flocculation,"Rod bacteria [2]; Example 10, continuous addition of 20 ppm to the acidified yeast concentrate",sufficient to control bacterial contamination and avoid yeast flocculation
same,Infection rate in %,Rod bacteria [2]; [15],2.8%
same,Rod bacteria cells/ml,Rod bacteria [2]; [15],9.6*10^6 cells/ml
same,Infection rate in %,Rod bacteria [2]; [16],0.5%
same,Rod bacteria cells/ml,Rod bacteria [2]; [16],1.4*10^6 cells/ml
same,Infection rate in %,Rod bacteria [2]; [17],8.1%
same,Rod bacteria cells/ml,Rod bacteria [2]; [17],24*10^6 cells/ml
same,Infection rate in %,Rod bacteria [2]; [18],11%
same,Rod bacteria cells/ml,Rod bacteria [2]; [18],29*10^6 cells/ml
same,Infection rate in %,Rod bacteria [2]; [19],1.5%
same,Rod bacteria cells/ml,Rod bacteria [2]; [19],3.0*10^6 cells/ml
same,Infection rate in %,Rod bacteria [2]; [20],0.2%
same,Rod bacteria cells/ml,Rod bacteria [2]; [20],0.7*10^6 cells/ml
same,Infection rate in %,Rod bacteria [2]; [21],4.4%
same,Rod bacteria cells/ml,Rod bacteria [2]; [21],13*10^6 cells/ml
same,Infection rate in %,Rod bacteria [2]; [22],7.5%
same,Rod bacteria cells/ml,Rod bacteria [2]; [22],22*10^6 cells/ml
same,effectiveness of addition depending on pH of yeast concentrate,"Rod bacteria [2]; Example 11, dosing at pH 3.0 to 3.3 versus about 2.0",effective only for an acidified yeast concentrate at a pH of less than 3.0
same,Infection rate in %,Rod bacteria [2]; [23],11%
same,Rod bacteria cells/ml,Rod bacteria [2]; [23],32*10^6 cells/ml
same,Infection rate in %,Rod bacteria [2]; [24],2%
same,Rod bacteria cells/ml,Rod bacteria [2]; [24],8.4*10^6 cells/ml
same,Infection rate in %,"Rod bacteria [2]; Example 11, fermenter 3, day 6, after the dosing periods",18%
